Source: ChEMBL document CHEMBL4138123, “Design, synthesis and biological evaluation of novel pyrazolochalcones as potential modulators of PI3K/Akt/mTOR pathway and inducers of apoptosis in breast cancer cells” (Eur J Med Chem, 2017)

Experiments:
Type in all cases: functional
[1] = tested on: HCC 2998; assay: Cytotoxicity against human HCC2998 cells assessed as cell growth at 1 uM after 48 hrs by sulforhodamine B assay relative to control; conditions: HCC 2998, 48 h, read-out: Activity
[2] = tested on: HCT-15; assay: Cytotoxicity against human HCT15 cells assessed as growth inhibition after 48 hrs by sulforhodamine B assay; conditions: HCT-15, 48 h
[3] = tested on: Malme-3M; assay: Cytotoxicity against human MALME-3M cells assessed as cell growth at 0.01 uM after 48 hrs by sulforhodamine B assay relative to control; conditions: read-out: Activity
[4] = tested on: TK-10; assay: Cytotoxicity against human TK10 cells assessed as growth inhibition after 48 hrs by sulforhodamine B assay; conditions: TK-10, 48 h
[5] = tested on: ACHN; assay: Cytotoxicity against human ACHN cells assessed as cell growth at 100 uM after 48 hrs by sulforhodamine B assay relative to control; conditions: read-out: Activity
[6] = tested on: BT-549; assay: Cytotoxicity against human BT549 cells assessed as cell growth at 10 uM after 48 hrs by sulforhodamine B assay relative to control; conditions: BT-549, 48 h, read-out: Activity
[7] = tested on: UO-31; assay: Cytotoxicity against human UO31 cells assessed as cell growth at 0.01 uM after 48 hrs by sulforhodamine B assay relative to control; conditions: UO-31, 48 h, read-out: Activity
[8] = tested on: SK-MEL-28; assay: Cytotoxicity against human SK-MEL-28 cells assessed as cell growth at 0.01 uM after 48 hrs by sulforhodamine B assay relative to control; conditions: SK-MEL-28, 48 h, read-out: Activity
[9] = tested on: TK-10; assay: Cytotoxicity against human TK10 cells assessed as cell growth at 0.01 uM after 48 hrs by sulforhodamine B assay relative to control; conditions: TK-10, 48 h, read-out: Activity
[10] = tested on: 786-0; assay: Cytotoxicity against human 786-0 cells assessed as cell growth at 10 uM after 48 hrs by sulforhodamine B assay relative to control; conditions: 786-0, 48 h, read-out: Activity
[11] = tested on: Malme-3M; assay: Cytotoxicity against human MALME-3M cells assessed as cell growth at 100 uM after 48 hrs by sulforhodamine B assay relative to control; conditions: read-out: Activity
[12] = tested on: NCI-H226; assay: Cytotoxicity against human NCI-H226 cells assessed as cell growth at 100 uM after 48 hrs by sulforhodamine B assay relative to control; conditions: NCI-H226, 48 h, read-out: Activity
[13] = tested on: KM12; assay: Cytotoxicity against human KM12 cells assessed as growth inhibition after 48 hrs by sulforhodamine B assay; conditions: KM12, 48 h
[14] = tested on: HCT-116; assay: Cytotoxicity against human HCT116 cells assessed as cell growth at 10 uM after 48 hrs by sulforhodamine B assay relative to control; conditions: HCT-116, 48 h, read-out: Activity
[15] = tested on: HT-29; assay: Cytotoxicity against human HT-29 cells assessed as cell growth at 100 uM after 48 hrs by sulforhodamine B assay relative to control; conditions: HT-29, 48 h, read-out: Activity
[16] = tested on: NCI-H23; assay: Cytotoxicity against human NCI-H23 cells assessed as cell growth at 0.01 uM after 48 hrs by sulforhodamine B assay relative to control; conditions: NCI-H23, 48 h, read-out: Activity
[17] = tested on: MDA-MB-468; assay: Cytotoxicity against human MDA-MB-468 cells assessed as cell growth at 10 uM after 48 hrs by sulforhodamine B assay relative to control; conditions: MDA-MB-468, 48 h, read-out: Activity
[18] = tested on: A549; assay: Cytotoxicity against human A549/ATCC cells assessed as cell growth at 10 uM after 48 hrs by sulforhodamine B assay relative to control; conditions: A549, 48 h, read-out: Activity
[19] = tested on: SK-OV-3; assay: Cytotoxicity against human SKOV3 cells assessed as cell growth at 1 uM after 48 hrs by sulforhodamine B assay relative to control; conditions: SK-OV-3, 48 h, read-out: Activity
[20] = tested on: SF-539; assay: Cytotoxicity against human SF539 cells assessed as cell growth at 0.1 uM after 48 hrs by sulforhodamine B assay relative to control; conditions: SF-539, 48 h, read-out: Activity
[21] = tested on: MDA-MB-435; assay: Cytotoxicity against human MDA-MB-435 cells assessed as cell growth at 100 uM after 48 hrs by sulforhodamine B assay relative to control; conditions: MDA-MB-435, 48 h, read-out: Activity
[22] = tested on: K562; assay: Cytotoxicity against human K562 cells assessed as cell growth at 100 uM after 48 hrs by sulforhodamine B assay relative to control; conditions: K562, 48 h, read-out: Activity
[23] = tested on: MDA-MB-468; assay: Cytotoxicity against human MDA-MB-468 cells assessed as cell growth at 100 uM after 48 hrs by sulforhodamine B assay relative to control; conditions: MDA-MB-468, 48 h, read-out: Activity
[24] = tested on: RXF 393; assay: Cytotoxicity against human RXF393 cells assessed as cell growth at 1 uM after 48 hrs by sulforhodamine B assay relative to control; conditions: RXF 393, 48 h, read-out: Activity
[25] = tested on: Malme-3M; assay: Cytotoxicity against human MALME-3M cells assessed as cell growth at 10 uM after 48 hrs by sulforhodamine B assay relative to control; conditions: read-out: Activity
[26] = tested on: CCRF-CEM; assay: Cytotoxicity against human CCRF-CEM cells assessed as cell growth at 100 uM after 48 hrs by sulforhodamine B assay relative to control; conditions: read-out: Activity
[27] = tested on: KM12; assay: Cytotoxicity against human KM12 cells assessed as cell growth at 1 uM after 48 hrs by sulforhodamine B assay relative to control; conditions: KM12, 48 h, read-out: Activity
[28] = tested on: ACHN; assay: Cytotoxicity against human ACHN cells assessed as cell growth at 10 uM after 48 hrs by sulforhodamine B assay relative to control; conditions: read-out: Activity
[29] = tested on: K562; assay: Cytotoxicity against human K562 cells assessed as cell growth at 0.1 uM after 48 hrs by sulforhodamine B assay relative to control; conditions: K562, 48 h, read-out: Activity
[30] = tested on: TK-10; assay: Cytotoxicity against human TK10 cells assessed as cell growth at 0.1 uM after 48 hrs by sulforhodamine B assay relative to control; conditions: TK-10, 48 h, read-out: Activity
[31] = tested on: ACHN; assay: Cytotoxicity against human ACHN cells assessed as cell growth at 0.01 uM after 48 hrs by sulforhodamine B assay relative to control; conditions: read-out: Activity
[32] = tested on: RPMI-8226; assay: Cytotoxicity against human RPMI8226 cells assessed as cell growth at 1 uM after 48 hrs by sulforhodamine B assay relative to control; conditions: RPMI-8226, 48 h, read-out: Activity
[33] = tested on: HT-29; assay: Cytotoxicity against human HT-29 cells assessed as cell growth at 0.01 uM after 48 hrs by sulforhodamine B assay relative to control; conditions: HT-29, 48 h, read-out: Activity
[34] = tested on: MCF7; assay: Cytotoxicity against human MCF7 cells assessed as growth inhibition after 48 hrs by sulforhodamine B assay; conditions: MCF7, 48 h
[35] = tested on: NCI/ADR-RES; assay: Cytotoxicity against human NCI/ADR-RES cells assessed as cell growth at 100 uM after 48 hrs by sulforhodamine B assay relative to control; conditions: read-out: Activity
[36] = tested on: MOLT-4; assay: Cytotoxicity against human MOLT4 cells assessed as cell growth at 10 uM after 48 hrs by sulforhodamine B assay relative to control; conditions: MOLT-4, 48 h, read-out: Activity

COc1ccc(C(=O)/C=C/c2cc(-c3ccc4c(c3)OCO4)n[nH]2)cc1OC
growth at 1 µM [1]: 104% | LC50 [2]: > 100 µM | TGI [2]: > 100 µM | growth at 0.01 µM [3]: 93% | GI50 [4]: 2.88 µM | LC50 [4]: 70.4 µM | TGI [4]: 8.97 µM | growth at 100 µM [5]: -4% | growth at 10 µM [6]: -57% | growth at 0.01 µM [7]: 86% | growth at 0.01 µM [8]: 99% | growth at 0.01 µM [9]: 91% | growth at 10 µM [10]: 5% | growth at 100 µM [11]: -74% | growth at 100 µM [12]: -20% | LC50 [13]: 34.9 µM | TGI [13]: 9.48 µM | growth at 10 µM [14]: -9% | growth at 100 µM [15]: -44% | growth at 0.01 µM [16]: 90% | growth at 10 µM [17]: -45% | growth at 10 µM [18]: 3% | growth at 1 µM [19]: 99% | growth at 0.1 µM [20]: 95% | growth at 100 µM [21]: -50% | growth at 100 µM [22]: -12% | growth at 100 µM [23]: -85% | growth at 1 µM [24]: 105% | growth at 10 µM [25]: 41% | growth at 100 µM [26]: -13% | growth at 1 µM [27]: 94% | growth at 10 µM [28]: 13% | growth at 0.1 µM [29]: 96% | growth at 0.1 µM [30]: 92% | growth at 0.01 µM [31]: 101% | growth at 1 µM [32]: 51% | growth at 0.01 µM [33]: 93% | GI50 [34]: 3.27 µM | LC50 [34]: > 100 µM | TGI [34]: 16.8 µM

COc1cc(C(=O)/C=C/c2cc(-c3cc(OC)c(OC)c(OC)c3)n[nH]2)cc(OC)c1OC
growth at 1 µM [1]: 99% | LC50 [2]: 7.19 µM | TGI [2]: 3.29 µM | growth at 0.01 µM [3]: 100% | LC50 [4]: 5.34 µM | TGI [4]: 2.8 µM | growth at 100 µM [5]: -98% | growth at 10 µM [6]: -96% | growth at 0.01 µM [7]: 90% | growth at 0.01 µM [8]: 101% | growth at 0.01 µM [9]: 99% | growth at 10 µM [10]: -77% | growth at 100 µM [11]: -94% | growth at 100 µM [12]: -50% | LC50 [13]: 5.77 µM | TGI [13]: 2.93 µM | growth at 10 µM [14]: -99% | growth at 100 µM [15]: -58% | growth at 0.01 µM [16]: 100% | growth at 10 µM [17]: -90% | growth at 10 µM [18]: 6% | growth at 1 µM [19]: 96% | growth at 0.1 µM [20]: 91% | growth at 100 µM [21]: -83% | growth at 100 µM [22]: 1% | growth at 100 µM [23]: -91% | growth at 100 µM [35]: -24% | growth at 1 µM [24]: 65% | growth at 10 µM [25]: -57% | growth at 100 µM [26]: 2% | growth at 1 µM [27]: 79% | growth at 10 µM [36]: -4% | growth at 10 µM [28]: -97% | growth at 0.1 µM [29]: 104% | growth at 0.1 µM [30]: 109% | growth at 0.01 µM [31]: 103% | growth at 1 µM [32]: 17% | growth at 0.01 µM [33]: 95% | LC50 [34]: 5.22 µM | TGI [34]: 2.07 µM

COc1cc(C(=O)/C=C/c2cc(-c3ccc4c(c3)OCO4)n[nH]2)cc(OC)c1OC
growth at 1 µM [1]: 100% | GI50 [2]: 1.95 µM | LC50 [2]: > 100 µM | TGI [2]: 6.75 µM | growth at 0.01 µM [3]: 94% | GI50 [4]: 2.9 µM | LC50 [4]: 25.6 µM | TGI [4]: 7.17 µM | growth at 100 µM [5]: -68% | growth at 10 µM [6]: -38% | growth at 0.01 µM [7]: 85% | growth at 0.01 µM [8]: 100% | growth at 0.01 µM [9]: 93% | growth at 10 µM [10]: -84% | growth at 100 µM [11]: -91% | growth at 100 µM [12]: -46% | GI50 [13]: 1.86 µM | LC50 [13]: 7.97 µM | TGI [13]: 3.85 µM | growth at 10 µM [14]: -43% | growth at 100 µM [15]: -45% | growth at 0.01 µM [16]: 95% | growth at 10 µM [17]: -57% | growth at 10 µM [18]: -22% | growth at 1 µM [19]: 107% | growth at 0.1 µM [20]: 97% | growth at 100 µM [21]: -88% | growth at 100 µM [22]: 5% | growth at 100 µM [23]: -80% | growth at 100 µM [35]: -19% | growth at 1 µM [24]: 67% | growth at 10 µM [25]: -41% | growth at 100 µM [26]: -20% | growth at 1 µM [27]: 93% | growth at 10 µM [36]: -8% | growth at 10 µM [28]: -43% | growth at 0.1 µM [29]: 84% | growth at 0.1 µM [30]: 92% | growth at 0.01 µM [31]: 102% | growth at 1 µM [32]: 32% | growth at 0.01 µM [33]: 103% | GI50 [34]: 1.06 µM | LC50 [34]: 7.88 µM | TGI [34]: 2.88 µM
